Source: patent US7557088B2, “Methods and compositions for treating conditions” (NeoPro Labs, LLC, priority 2006, dated 2009)
Values joined by “and” are separate entries in the source; they are usually repeats but may differ in a detail not shown here. Equal entries are not always repeated. Residues, ends and D or L forms follow the SMILES beside them. No end group written: not given here.

Tests used:
[1] = tested on: post-surgical pain in rats; test: oral administration, von Frey withdrawal response after plantar incision; format: in vivo; details: for Withdrawal Response Post-Dose / Post-Dose change of pain threshold (arrow): morphine sulfate 3.7 mg/kg; for Withdrawal Response Post-Dose: peptides 100 mg/kg; for Withdrawal Response Post-Surgery: 150 min after surgery, before dosing; for Withdrawal Response Pre-Surgery: baseline 15 min pre-surgery; for Post-Dose change of pain threshold (arrow): peptides 100 mg/kg oral; for effect when administered with aspirin / effect when administered with Naloxone / effect on pain threshold: oral; for effect when administered with aspirin: ASA 1 mg/kg co-administered (Groups 4, 6, 9); for effect when administered with Naloxone: Naloxone 2 mg/kg co-administered (Groups 3, 5, 8); for effect on pain threshold: with 0.9% saline as Treatment 1 (Groups 2, 7, 10)
Excerpt: Table VI below illustrates results from the oral administration of SEQ ID NO: 1 and SEQ ID NO: 153 and the effects of Naloxone and aspirin on their ability to decrease the pain threshold.
In this experiment animals were weighed and placed in the group numbers designated on the left hand column. Each group is composed of 10 rats. Animals were anesthetized with 1.8 to 4% isofluorane (delivered via a nose cone) and each received an intramuscular injection of penicillin (30,000 IU) in the triceps muscle after preparation of the foot with betadine and alcohol (SOPs VET-1 and VET-8). A 1 cm long incision of skin and fascia was made in the plantar aspect (heel, midfoot or distal pad area) of the right hind paw. No underlying muscle was incised. After hemostasis with gentle pressure, the incision was closed with one or two sutures (5-0 silk/nylon ophthalmic suture on a taper TF needle or equivalent). The wound site was covered with a mixture of polymixin B, neomycin, and bacitracin ointment. After surgery, rats were allowed to recover in their cages until behavioral testing. Prior to surgery, rats were placed individually on an elevated wire mesh floor covered with a clear plastic cage top and allowed to acclimate. Baseline pain behavior was measured as follows: Withdrawal responses to mechanical stimulation were determined using von Frey filaments applied from underneath the cage through openings (12×12 mm in the plastic mesh floor to an area adjacent to the intended incision). Each von Frey filament (Target force of 0.008 g to 300 g) was applied once starting with 0.008 g filament and continuing until a withdrawal response occurred or 300 g force was reached. The median force producing a response, determined from three tests given over a 10-min period was considered the withdrawal threshold. Rats were tested for responses 15 minutes pre-surgery, 150 minutes after surgery, and 20 minutes after treatment. Oral treatments 1 and 2 were co-administered 180 minutes after surgery. The test article/vehicle administration and pain measurements were as per Table below.
As illustrated by Table VI, SEQ ID NOs: 1 and 153 attenuate sensitization to von Frey mechanical stimuli after oral application. The response to the von Frey monofilament is in gram. Arrow up (1) indicates an increase in the pain threshold and arrow down (1) indicates a decrease in the threshold. Zero indicates no change.

[2] = solubility of test article in 0.9% saline; format: physicochemical; details: 100 mg/mL: 1.4 mL of saline added to 141.5 mg, room temperature
Experimental: The test article was SEQ ID NO: 1, a white powder, which was delivered in 0.9% saline. The test article formulations were prepared on the day of study and kept at room temperature until dosing. 100 mg/kg at 1 mL/kg=100 mg/mL 1.4 mL of saline added to 141.5 mg of test article, soluble.

[3] = feeding behavior of rats exposed to high levels of the peptide; format: in vivo; details: at least 3 days
Excerpt: Pain is basically managed by two classes of drugs. […] The peptide has no anti-inflammatory properties and this differentiates it pharmacologically from analgesics in the NSAID's.

[4] = tested on: Pseudomonas syringae pv tomato, DC3000; test: systemic resistance of Arabidopsis plants to a virulent bacterial pathogen; format: in vivo, Arabidopsis ecotype Columbia (Col-0); details: 20 μl salicylic acid 1 mM and 20 μl SEQ ID NO: 15 applied to the leaves
Experimental: Seeds of Arabidopsis ecotype Columbia (Col-0) were planted in potting soil. Plants were cultivated in a growth chamber with 10-h d (200 μmol m^−2s^−1 at 22° C.) and 14-h night (18° C.) cycles and 80% RH. Once a week plants were supplied with water and modified one-half strength Hoagland nutrient solution: 2 mM KNO 5 mM Ca(NO3)2 and trace elements, pH 7.
A virulent plant pathogen, Pst Pseudomonas syringae pv tomato, DC3000 was grown at 28° C. on King's medium B containing 40 mg/L tetracycline. Plants were inoculated with 1×10^7 cfu/ml of the pathogen in 0.01% Silwet L77 (v/v) (a surfactant) and distilled water 5 weeks after sowing. The bacterial suspension or a control solution (0.01% Silwet L77 in water) was then sprayed on the plant once.
Disease symptoms in Arabidopsis are water-soaked, spreading lesions, sometimes surrounded by chlorotic margin that eventually lead to yield loss and plant death.
To test the efficacy of SEQ ID NO: 15, some healthy and some disease plants were sprayed with salicylic acid in 0.01%. Silwet L77; some healthy and some disease plants were sprayed with SEQ ID NO: 15 in 0.01%. Silwet L77, and some healthy and some disease plants were sprayed with salicylic acid in combination with SEQ ID NO: 15 in 0.01%. Silwet L77. A control group of some healthy and some disease plants were sprayed with water in 0.01%. Silwet L77. […]

[5] = tested on: Sauromatum guttatum appendix; test: heat production by Sauromatum guttatum appendix sections treated with 2,6-dihydroxybenzoic acid (2,6-DHBA); details: second experiment, application up to 50 μM, data not shown
Experimental: In one example, using Sauromatum guttatum as the experimental module, on the day of inflorescence-opening, the Sauromatum appendix (a 20-40 cm-long, slender organ) becomes warm, reaching a 32° C. temperature (Skubatz et al., 1991, Plant Physiol. 95-1084-1088). The heat generated by the appendix is generated by the mitochondria. This mitochondrial activity can be triggered by the addition of phenolic compounds, including but not limited to, salicylic acid, aspirin, and 2,6-dihydroxybenzoic acid. Test agents can be applied to the plant and the plant's temperature may be monitored in vivo.
FIG. 6 illustrates modulation of heat generated by 2,6-dihydroxybenzoic acid in the presence of the Alzheimer's peptide, Aβ 1-42, SEQ ID NO: 49 and a plant gene derived sequence in the Sauromatum guttatum appendix. One day before heat-production, sections of the appendix were placed in different solutions containing 2,6-dihydroxybenzoic acid (2,6-DHBA) with or without SEQ ID NO: 2 (FLPSEFGVDVDR) and SEQ ID NO: 51. Heat-production was monitored with thermocouples attached to the sections. A section placed in distilled water that was not generated any heat is the control (water). […] The temperature was recorded every 5 min. […] This figure illustrates that these peptides modulate thermogenicity in plants as well as animals and act as mitochondrial modulators.

opioid receptor = test: mechanism of action with Naloxone, antagonist of the opioid receptors (oral pain study); set-up: species or system rats; details: inferred from in vivo Naloxone co-administration, no binding test
Experimental: When Naloxene was administered with SEQ ID NO: 153 (Group 8), the effects of SEQ ID NO: 153 were reduced (compare Group 8 to Group 10) but unlike the case of Morphine (Group 3), not completely eliminated.

[6] = 20 min after oral treatment, co-administered ASA 1 mg/kg
[7] = 20 min after oral treatment, co-administered Naloxone 2 mg/kg
[8] = group later given Treatment 1 0.9% Saline + Treatment 2
[9] = group later given Treatment 1 ASA 1 mg/kg + Treatment 2
[10] = group later given Treatment 1 Naloxone 2 mg/kg + Treatment 2
[11] = group later given Treatment 1 0.9% Saline 2 mL/kg + oral Treatment 2 (morphine sulfate 3.7 mg/kg or peptide 100 mg/kg)
[12] = co-administered Naloxone 2 mg/kg

Compound	Withdrawal Response Post-Dose [1, 6]	Withdrawal Response Post-Dose [1, 7] [g]	Withdrawal Response Post-Surgery [1, 8]	Withdrawal Response Post-Surgery [1, 9] [g]	Withdrawal Response Post-Surgery [1, 10] [g]	Withdrawal Response Pre-Surgery [1, 11] [g]	Withdrawal Response Pre-Surgery [1, 9] [g]	Withdrawal Response Pre-Surgery [1, 10] [g]	Post-Dose change of pain threshold (arrow) [1, 12]	effect when administered with aspirin [1]	effect when administered with Naloxone [1]	effect on pain threshold [1]	systemic resistance to the virulent bacteria [4]	also measured
CN1CC[C@]23c4c5ccc(O)c4O[C@H]2[C@@H](O)C=C[C@H]3[C@H]1C5.O=S(=O)(O)O [Morphine sulfate, reference compound]	5.5 ± 0.80 g	3.5 ± 0.24	3.8 ± 0.52 g	4.3 ± 0.41	3.7 ± 0.39	30.4 ± 3.29	21.9 ± 2.13	28.5 ± 4.53	0	aspirin reduced the effects of Morphine	the effect of Morphine is eliminated	the pain threshold is increased		Withdrawal Response Post-Dose ([1]; 20 min after oral treatment at 180 min after surgery, Treatment 1 0.9% Saline 2 mL/kg, listed as Morphine, sulfate): 6.6 g; Withdrawal Response Post-Dose ([1]; 20 min after oral treatment at 180 min after surgery, Treatment 1 0.9% Saline 2 mL/kg, sulfate): 6.6 ± 1.58 g
CC(C)C[C@H](NC(=O)[C@@H](N)Cc1ccccc1)C(=O)N1CCC[C@H]1C(=O)N[C@@H](CO)C(=O)O [SEQ ID NO: 1, Phe-Leu-Pro-Ser] (H-FLPS-OH; N-terminus and C-terminus assumed)														solubility in saline [2]: soluble; feeding behavior [3]: did not invoke an abnormal feeding behavior
O=C(O)c1ccccc1O [salicylic acid]													enough to trigger systemic resistance	
FLPSEFGVDVDR [SEQ ID NO: 2]														heat generation by the peptide [5]: did not generate heat
SPLF [SEQ ID NO: 153]	5.7 g and 5.7 ± 0.56 g	4.7 ± 0.45	4.5 g and 4.5 ± 0.32 g	4.7 ± 0.56	4.5 ± 0.55	28.1 ± 3.02	29.2 ± 3.21	29.3 ± 4.00	0	improved effect	reduced	increases the pain threshold		binding to the opioid receptor relative to Morphine and Naloxone (opioid receptor): binds to the opioid receptor more tightly than Morphine, but less tightly than Naloxene; Withdrawal Response Post-Dose ([1]; 20 min after oral treatment at 180 min after surgery, Treatment 1 0.9% Saline 2 mL/kg): 5.0 g and 5.0 ± 0.41 g; Post-Dose change of pain threshold (arrow) ([1]; Treatment 1 0.9% Saline 2 mL/kg): 0
YGGFL [SEQ ID NO: 15]													enough to trigger systemic resistance	
